{
  "source": "paper PMC10703426",
  "about": "“New characterization of dihydroergotamine receptor pharmacology in the context of migraine: utilization of a β-arrestin recruitment assay” (Frontiers in Neurology, 2023)",
  "key": {"5-HT1A": {"molecular_target": "T1, 5-HT1A (Homo sapiens, UniProt P08908)", "T1 construct": "ProLink enzyme-donor fragment of β-galactosidase (own knowledge of the PathHunter design)", "test": "gpcrMAX PathHunter β-arrestin recruitment, agonist mode", "type": "cell-based", "details": "10 μM; >30% activity = agonist", "experimental": "(§1) PathHunter cell lines were expanded from freezer stocks according to standard procedures and cells were seeded in a total volume of 20 μL into white-walled, 384-well microplates in duplicate and incubated at 37°C prior to testing. […] Intermediate dilution (1% vehicle concentration) of sample stocks was performed to generate a 5× sample in assay buffer, of which 5 μL was added to the cells and incubated for 90 or 180 min at 37°C or room temperature, depending on the specific receptor, as established by manufacturer optimization protocols (see Supplementary Table 1). For antagonist activity, cells were preincubated with an antagonist for 30 min, followed by an agonist challenge at 80% of the maximal effective concentration (EC80). Intermediate dilution of sample stocks was performed to generate 5× sample in assay buffer, of which 5 μL was added to cells and incubated at 37°C or room temperature for 30 min. This was followed by an addition of 5 μL of 6× EC80 agonist in assay buffer to the cells, which were incubated at 37°C or room temperature for 90 or 180 min. Assay signal for agonist and antagonist modes was generated through a single addition of 12.5 or 15 μL (50% v/v) of PathHunter Detection reagent cocktail, followed by a 1-h incubation at room temperature. Further experimental details can be found in the Supplementary File. Microplates were read with a PerkinElmer EnVision (Shelton, CT) instrument for chemiluminescent signal detection.\n(§2) Measurement of agonist and antagonist activity in the assay was calculated as percent activity of relative luminescence units (from positive control). Significance of agonist/antagonist activity was determined based upon prespecified criteria provided by Eurofins DiscoverX. In brief, receptor activity >30% was considered a significant agonist effect. Receptor inhibition >50% was considered a significant inhibitory effect. Please refer to the Supplementary File for more detail.\n(§3) Samples were added to cells and incubated for 90 or 180 minutes at 37 °C or room temperature, depending on the specific receptor, as noted, with specific incubation protocols outlined in Supplemental Table 1. For antagonist activity, preincubation temperatures were performed at the temperatures specified in Supplemental Table 1, per target. Incubation with 6× EC80 agonist was determined by the assay manufacturer and selected in order to provide a challenge that was low enough to be below the saturation point, so as to not bias the results, while still at a high enough challenge concentration to yield a robust signal-to-noise ratio. Further information is available from Eurofins Discovery Services upon request."}, "5-HT1B [1]": {"molecular_target": "T2, 5-HT1B (Homo sapiens, UniProt P28222)", "T2 construct": "host or cells: Chem-1 cells", "T2 sequence (P28222 whole entry)": "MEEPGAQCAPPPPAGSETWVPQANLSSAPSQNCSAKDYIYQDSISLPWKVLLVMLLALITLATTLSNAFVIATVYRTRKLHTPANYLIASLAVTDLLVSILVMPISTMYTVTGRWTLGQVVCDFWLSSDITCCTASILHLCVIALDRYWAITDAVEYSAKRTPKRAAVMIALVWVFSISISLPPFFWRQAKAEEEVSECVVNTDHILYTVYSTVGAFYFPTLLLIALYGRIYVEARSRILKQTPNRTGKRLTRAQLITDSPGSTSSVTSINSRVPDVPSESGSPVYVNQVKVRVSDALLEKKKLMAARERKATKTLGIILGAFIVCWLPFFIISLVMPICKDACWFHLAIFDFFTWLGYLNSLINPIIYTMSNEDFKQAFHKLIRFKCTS", "test": "gpcrMAX PathHunter β-arrestin recruitment, agonist mode", "type": "cell-based", "details": "10 μM; >30% activity = agonist", "experimental": "as §1, §2, §3"}, "5-HT2C": {"molecular_target": "T3, 5-HT2C (Homo sapiens, UniProt P28335)", "T3 construct": "ProLink enzyme-donor fragment of β-galactosidase (own knowledge of the PathHunter design)", "T3 sequence (P28335 33-458)": "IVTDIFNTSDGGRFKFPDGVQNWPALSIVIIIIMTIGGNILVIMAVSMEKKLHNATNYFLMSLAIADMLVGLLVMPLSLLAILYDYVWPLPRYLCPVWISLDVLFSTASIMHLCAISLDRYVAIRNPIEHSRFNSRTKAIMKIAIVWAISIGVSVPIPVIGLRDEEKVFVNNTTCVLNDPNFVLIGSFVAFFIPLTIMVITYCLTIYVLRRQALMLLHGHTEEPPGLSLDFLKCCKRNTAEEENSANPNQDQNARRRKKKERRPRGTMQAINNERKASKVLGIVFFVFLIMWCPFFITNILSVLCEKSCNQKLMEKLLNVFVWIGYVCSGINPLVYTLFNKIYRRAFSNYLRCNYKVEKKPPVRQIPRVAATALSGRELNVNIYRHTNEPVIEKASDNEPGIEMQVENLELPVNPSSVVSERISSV", "test": "gpcrMAX PathHunter β-arrestin recruitment, agonist mode", "type": "cell-based", "details": "10 μM; >30% activity = agonist", "experimental": "as §1, §2, §3"}, "5-HT5A": {"molecular_target": "T4, 5-HT5A (Homo sapiens, UniProt P47898)", "T4 construct": "ProLink enzyme-donor fragment of β-galactosidase (own knowledge of the PathHunter design)", "T4 sequence (P47898 whole entry, the tested form may be a part)": "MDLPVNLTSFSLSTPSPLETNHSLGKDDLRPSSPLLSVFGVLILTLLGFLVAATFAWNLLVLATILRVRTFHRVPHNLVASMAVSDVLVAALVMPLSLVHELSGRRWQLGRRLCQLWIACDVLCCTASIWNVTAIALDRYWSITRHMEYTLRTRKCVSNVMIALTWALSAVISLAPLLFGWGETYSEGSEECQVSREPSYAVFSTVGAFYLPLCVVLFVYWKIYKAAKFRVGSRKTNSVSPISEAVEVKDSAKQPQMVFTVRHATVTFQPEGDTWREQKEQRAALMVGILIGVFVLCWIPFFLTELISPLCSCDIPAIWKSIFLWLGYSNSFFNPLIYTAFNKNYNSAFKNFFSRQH", "test": "gpcrMAX PathHunter β-arrestin recruitment, agonist mode", "type": "cell-based", "details": "10 μM; >30% activity = agonist", "experimental": "as §1, §2, §3"}, "D2L": {"molecular_target": "T5, D2L (Homo sapiens, UniProt P14416)", "T5 construct": "ProLink enzyme-donor fragment of β-galactosidase (own knowledge of the PathHunter design)", "test": "gpcrMAX PathHunter β-arrestin recruitment, agonist mode", "type": "cell-based", "details": "10 μM; >30% activity = agonist", "experimental": "as §1, §2, §3"}, "D2S": {"molecular_target": "T6, D2S (Homo sapiens, UniProt P14416)", "T6 construct": "ProLink enzyme-donor fragment of β-galactosidase (own knowledge of the PathHunter design)", "test": "gpcrMAX PathHunter β-arrestin recruitment, agonist mode", "type": "cell-based", "details": "10 μM; >30% activity = agonist", "experimental": "as §1, §2, §3"}, "D5 [2]": {"molecular_target": "T7, D5 (Homo sapiens, UniProt P21918)", "T7 construct": "ProLink enzyme-donor fragment of β-galactosidase (own knowledge of the PathHunter design)", "T7 sequence (P21918 whole entry, the tested form may be a part)": "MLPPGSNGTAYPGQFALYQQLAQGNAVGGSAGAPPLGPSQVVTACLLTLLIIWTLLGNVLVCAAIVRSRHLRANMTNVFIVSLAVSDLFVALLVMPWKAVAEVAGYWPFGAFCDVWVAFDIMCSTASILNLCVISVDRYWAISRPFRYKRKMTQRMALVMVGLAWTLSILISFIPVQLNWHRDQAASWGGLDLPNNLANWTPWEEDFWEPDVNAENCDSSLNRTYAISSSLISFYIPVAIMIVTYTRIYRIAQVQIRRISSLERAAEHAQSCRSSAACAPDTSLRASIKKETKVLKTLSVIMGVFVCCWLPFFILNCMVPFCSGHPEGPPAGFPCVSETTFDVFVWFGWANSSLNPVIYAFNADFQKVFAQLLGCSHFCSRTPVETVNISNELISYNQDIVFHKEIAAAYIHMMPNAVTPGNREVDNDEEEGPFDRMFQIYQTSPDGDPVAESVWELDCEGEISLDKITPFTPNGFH", "test": "gpcrMAX PathHunter β-arrestin recruitment, agonist mode", "type": "cell-based", "details": "10 μM; >30% activity = agonist", "experimental": "as §1, §2, §3"}, "5-HT1F": {"molecular_target": "T8, 5-HT1F (Homo sapiens, UniProt P30939)", "T8 construct": "ProLink enzyme-donor fragment of β-galactosidase (own knowledge of the PathHunter design)", "T8 sequence (P30939 1-366)": "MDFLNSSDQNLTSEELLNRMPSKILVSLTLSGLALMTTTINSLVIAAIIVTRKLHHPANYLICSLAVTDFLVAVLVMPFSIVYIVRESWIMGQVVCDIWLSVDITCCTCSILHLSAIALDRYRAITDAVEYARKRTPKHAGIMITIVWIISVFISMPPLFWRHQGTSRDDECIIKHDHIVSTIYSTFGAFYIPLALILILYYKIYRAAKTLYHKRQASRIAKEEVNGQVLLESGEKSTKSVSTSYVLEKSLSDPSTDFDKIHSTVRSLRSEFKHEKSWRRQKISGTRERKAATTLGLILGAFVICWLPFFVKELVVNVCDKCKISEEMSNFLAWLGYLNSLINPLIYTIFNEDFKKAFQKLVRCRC", "test": "gpcrMAX PathHunter β-arrestin recruitment, antagonist mode", "type": "cell-based", "experimental": "as §1, §2, §3"}, "AMY2 (CTR-RAMP2)": {"molecular_target": "T9, AMY2 (CTR-RAMP2) (Homo sapiens, UniProt O60895+P30988)", "T9 construct": "ProLink enzyme-donor fragment of β-galactosidase (own knowledge of the PathHunter design)", "T9 sequence (P30988 25-474)": "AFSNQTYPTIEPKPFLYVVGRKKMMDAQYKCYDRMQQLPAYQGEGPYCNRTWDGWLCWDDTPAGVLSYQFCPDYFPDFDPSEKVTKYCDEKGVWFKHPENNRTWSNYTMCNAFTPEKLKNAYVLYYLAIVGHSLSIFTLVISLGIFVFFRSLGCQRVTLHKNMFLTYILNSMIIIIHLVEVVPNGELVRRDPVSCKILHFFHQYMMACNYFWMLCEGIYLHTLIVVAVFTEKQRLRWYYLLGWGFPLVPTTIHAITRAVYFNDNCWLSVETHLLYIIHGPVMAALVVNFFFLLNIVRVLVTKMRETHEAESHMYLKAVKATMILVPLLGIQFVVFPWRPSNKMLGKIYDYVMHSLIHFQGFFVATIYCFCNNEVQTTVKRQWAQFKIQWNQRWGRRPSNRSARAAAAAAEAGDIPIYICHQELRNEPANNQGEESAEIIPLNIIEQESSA", "T9 sequence (O60895 43-175 partner)": "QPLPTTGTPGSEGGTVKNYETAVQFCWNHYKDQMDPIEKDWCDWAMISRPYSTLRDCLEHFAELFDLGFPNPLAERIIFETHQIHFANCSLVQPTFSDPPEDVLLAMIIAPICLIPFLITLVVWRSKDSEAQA", "test": "gpcrMAX PathHunter β-arrestin recruitment, antagonist mode", "type": "cell-based", "experimental": "as §1, §2, §3"}, "D1": {"molecular_target": "T10, D1 (Homo sapiens, UniProt P21728)", "T10 construct": "ProLink enzyme-donor fragment of β-galactosidase (own knowledge of the PathHunter design)", "T10 sequence (P21728 whole entry, the tested form may be a part)": "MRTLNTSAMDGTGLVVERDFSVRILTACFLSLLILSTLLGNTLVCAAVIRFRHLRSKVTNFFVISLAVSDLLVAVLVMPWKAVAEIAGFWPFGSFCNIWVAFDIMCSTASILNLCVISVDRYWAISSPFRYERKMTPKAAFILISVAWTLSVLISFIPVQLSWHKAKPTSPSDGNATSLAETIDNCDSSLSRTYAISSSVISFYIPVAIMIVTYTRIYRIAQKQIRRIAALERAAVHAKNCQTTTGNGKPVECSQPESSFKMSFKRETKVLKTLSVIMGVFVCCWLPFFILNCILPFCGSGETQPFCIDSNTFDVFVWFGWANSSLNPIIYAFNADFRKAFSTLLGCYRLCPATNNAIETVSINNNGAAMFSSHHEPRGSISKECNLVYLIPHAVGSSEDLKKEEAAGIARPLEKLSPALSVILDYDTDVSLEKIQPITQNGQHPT", "test": "gpcrMAX PathHunter β-arrestin recruitment, antagonist mode", "type": "cell-based", "experimental": "as §1, §2, §3"}, "D3": {"molecular_target": "T11, D3 (Homo sapiens, UniProt P35462)", "T11 construct": "ProLink enzyme-donor fragment of β-galactosidase (own knowledge of the PathHunter design)", "T11 sequence (P35462 whole entry, the tested form may be a part)": "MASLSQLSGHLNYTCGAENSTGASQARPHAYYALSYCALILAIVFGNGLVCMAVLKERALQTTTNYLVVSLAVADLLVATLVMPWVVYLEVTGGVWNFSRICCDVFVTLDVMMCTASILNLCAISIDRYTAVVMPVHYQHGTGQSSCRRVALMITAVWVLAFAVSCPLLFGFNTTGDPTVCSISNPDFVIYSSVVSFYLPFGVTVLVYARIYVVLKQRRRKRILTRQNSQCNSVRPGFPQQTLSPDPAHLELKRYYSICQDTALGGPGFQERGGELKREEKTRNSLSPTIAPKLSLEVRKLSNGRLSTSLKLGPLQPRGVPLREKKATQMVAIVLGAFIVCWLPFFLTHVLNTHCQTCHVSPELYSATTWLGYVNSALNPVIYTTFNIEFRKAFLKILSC", "test": "gpcrMAX PathHunter β-arrestin recruitment, antagonist mode", "type": "cell-based", "experimental": "as §1, §2, §3"}, "D4": {"molecular_target": "T12, D4 (Homo sapiens, UniProt P21917)", "T12 construct": "ProLink enzyme-donor fragment of β-galactosidase (own knowledge of the PathHunter design)", "T12 sequence (P21917 whole entry, the tested form may be a part)": "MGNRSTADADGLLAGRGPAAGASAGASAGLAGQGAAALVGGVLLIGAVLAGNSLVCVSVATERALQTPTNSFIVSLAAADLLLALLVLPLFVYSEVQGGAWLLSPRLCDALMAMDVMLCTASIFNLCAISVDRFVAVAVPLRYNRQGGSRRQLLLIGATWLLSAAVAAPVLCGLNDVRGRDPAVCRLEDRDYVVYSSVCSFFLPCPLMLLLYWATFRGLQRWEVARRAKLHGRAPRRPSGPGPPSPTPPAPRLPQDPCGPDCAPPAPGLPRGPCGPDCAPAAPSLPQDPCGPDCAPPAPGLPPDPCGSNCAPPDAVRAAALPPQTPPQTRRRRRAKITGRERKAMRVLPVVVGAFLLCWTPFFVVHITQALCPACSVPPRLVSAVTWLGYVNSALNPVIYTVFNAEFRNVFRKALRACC", "test": "gpcrMAX PathHunter β-arrestin recruitment, antagonist mode", "type": "cell-based", "experimental": "as §1, §2, §3"}, "D5 [3]": {"molecular_target": "T7, D5", "test": "gpcrMAX PathHunter β-arrestin recruitment, antagonist mode", "type": "cell-based", "experimental": "as §1, §2, §3"}, "α-adrenergic1B": {"molecular_target": "T13, α-adrenergic1B (Homo sapiens, UniProt P35368)", "T13 construct": "ProLink enzyme-donor fragment of β-galactosidase (own knowledge of the PathHunter design)", "T13 sequence (P35368 whole entry, the tested form may be a part)": "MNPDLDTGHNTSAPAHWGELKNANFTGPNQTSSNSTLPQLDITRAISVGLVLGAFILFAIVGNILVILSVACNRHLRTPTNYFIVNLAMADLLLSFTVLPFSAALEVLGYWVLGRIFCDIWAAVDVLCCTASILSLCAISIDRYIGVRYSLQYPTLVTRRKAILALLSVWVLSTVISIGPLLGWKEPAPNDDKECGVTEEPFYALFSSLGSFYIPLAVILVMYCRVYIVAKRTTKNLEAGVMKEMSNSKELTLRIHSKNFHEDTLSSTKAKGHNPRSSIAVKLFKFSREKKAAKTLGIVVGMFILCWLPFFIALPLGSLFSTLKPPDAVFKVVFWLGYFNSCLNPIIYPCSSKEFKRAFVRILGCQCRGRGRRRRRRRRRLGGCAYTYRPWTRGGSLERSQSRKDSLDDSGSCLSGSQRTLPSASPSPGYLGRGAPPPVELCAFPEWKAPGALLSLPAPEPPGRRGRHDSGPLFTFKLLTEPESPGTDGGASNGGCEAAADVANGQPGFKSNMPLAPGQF", "test": "gpcrMAX PathHunter β-arrestin recruitment, antagonist mode", "type": "cell-based", "experimental": "as §1, §2, §3"}, "α-adrenergic2A": {"molecular_target": "T14, α-adrenergic2A (Homo sapiens, UniProt P08913)", "T14 construct": "ProLink enzyme-donor fragment of β-galactosidase (own knowledge of the PathHunter design)", "T14 sequence (P08913 whole entry, the tested form may be a part)": "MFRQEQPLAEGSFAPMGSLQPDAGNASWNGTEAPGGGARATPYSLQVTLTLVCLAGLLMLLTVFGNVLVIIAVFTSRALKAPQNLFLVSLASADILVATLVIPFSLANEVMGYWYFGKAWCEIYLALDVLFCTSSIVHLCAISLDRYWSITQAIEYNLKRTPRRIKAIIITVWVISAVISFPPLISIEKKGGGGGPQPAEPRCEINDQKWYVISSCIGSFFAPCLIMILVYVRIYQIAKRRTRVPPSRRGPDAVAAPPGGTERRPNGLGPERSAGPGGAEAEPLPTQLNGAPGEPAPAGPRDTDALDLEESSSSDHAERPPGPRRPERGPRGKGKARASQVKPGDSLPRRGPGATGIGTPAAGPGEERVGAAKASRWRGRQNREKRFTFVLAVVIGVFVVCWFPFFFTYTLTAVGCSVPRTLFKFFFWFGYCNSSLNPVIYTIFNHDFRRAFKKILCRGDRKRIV", "test": "gpcrMAX PathHunter β-arrestin recruitment, antagonist mode", "type": "cell-based", "experimental": "as §1, §2, §3"}, "α-adrenergic2C": {"molecular_target": "T15, α-adrenergic2C (Homo sapiens, UniProt P18825)", "T15 construct": "ProLink enzyme-donor fragment of β-galactosidase (own knowledge of the PathHunter design)", "T15 sequence (P18825 whole entry, the tested form may be a part)": "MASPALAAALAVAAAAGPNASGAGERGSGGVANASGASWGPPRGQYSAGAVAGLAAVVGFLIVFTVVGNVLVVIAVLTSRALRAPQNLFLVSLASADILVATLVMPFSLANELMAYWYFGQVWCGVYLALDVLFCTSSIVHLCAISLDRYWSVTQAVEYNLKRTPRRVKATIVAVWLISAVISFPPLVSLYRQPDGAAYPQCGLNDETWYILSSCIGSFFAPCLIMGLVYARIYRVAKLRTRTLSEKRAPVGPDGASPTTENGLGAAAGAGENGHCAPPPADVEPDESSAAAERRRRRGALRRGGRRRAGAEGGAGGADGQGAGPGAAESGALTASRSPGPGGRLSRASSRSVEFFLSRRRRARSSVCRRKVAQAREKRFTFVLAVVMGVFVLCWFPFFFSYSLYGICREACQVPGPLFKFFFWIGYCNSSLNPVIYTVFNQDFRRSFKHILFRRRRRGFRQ", "test": "gpcrMAX PathHunter β-arrestin recruitment, antagonist mode", "type": "cell-based", "experimental": "as §1, §2, §3"}, "5-HT1B [4]": {"molecular_target": "T2, 5-HT1B", "test": "Radioligand competition binding, [3H]GR125743, Chem-1 cells", "procedure": "All assays were performed in duplicate (ie, 2 replicates per assay, per standard manufacturer protocol)."}, "[5]": {"details": "10 μM, >50% inhibition = antagonist"}, "[6]": {"details": "agonist control Dopamine at EC80"}, "[7]": {"details": "agonist control UK 14,304 at EC80"}},
  "note": "Counter-ions that a name gives are not always drawn.",
  "data": [
    {"smiles": "CN1C[C@H](C(=O)N[C@]2(C)O[C@@]3(O)[C@@H]4CCCN4C(=O)[C@H](Cc4ccccc4)N3C2=O)C[C@@H]2c3cccc4[nH]cc(c34)C[C@H]21", "note": "[DHE, Dihydroergotamine mesylate]", "values": [
      {"measurement": "DHE activity (screening)", "setting": "5-HT1A", "result": "Agonist"},
      {"measurement": "DHE activity (screening)", "setting": "5-HT1B [1]", "result": "Agonist"},
      {"measurement": "DHE activity (screening)", "setting": "5-HT2C", "result": "Agonist"},
      {"measurement": "DHE activity (screening)", "setting": "5-HT5A", "result": "Agonist"},
      {"measurement": "DHE activity (screening)", "setting": "D2L", "result": "Agonist"},
      {"measurement": "DHE activity (screening)", "setting": "D2S", "result": "Agonist"},
      {"measurement": "DHE activity (screening)", "setting": "D5 [2]", "result": "Agonist"},
      {"measurement": "IC50", "setting": "5-HT1F", "result": 149, "unit": "nM"},
      {"measurement": "DHE activity (screening)", "setting": "5-HT1F; [5]", "result": "Antagonist"},
      {"measurement": "inhibition at 10 µM", "setting": "5-HT1F; 10 μM, agonist control Serotonin at EC80", "result": 92, "unit": "%"},
      {"measurement": "inhibition at 10 µM", "setting": "AMY2 (CTR-RAMP2)", "result": 57, "unit": "%"},
      {"measurement": "DHE activity (screening)", "setting": "AMY2 (CTR-RAMP2); [5]", "result": "Antagonist"},
      {"measurement": "DHE activity (screening)", "setting": "D1; [5]", "result": "Antagonist"},
      {"measurement": "inhibition at 10 µM", "setting": "D1; [6]", "result": 71, "unit": "%"},
      {"measurement": "DHE activity (screening)", "setting": "D3; [5]", "result": "Antagonist"},
      {"measurement": "inhibition at 10 µM", "setting": "D3; [6]", "result": 91, "unit": "%"},
      {"measurement": "DHE activity (screening)", "setting": "D4; [5]", "result": "Antagonist"},
      {"measurement": "inhibition at 10 µM", "setting": "D4; [6]", "result": 83, "unit": "%"},
      {"measurement": "DHE activity (screening)", "setting": "D5 [3]; [5]", "result": "Antagonist"},
      {"measurement": "inhibition at 10 µM", "setting": "D5 [3]; [6]", "result": 54, "unit": "%"},
      {"measurement": "DHE activity (screening)", "setting": "α-adrenergic1B; [5]", "result": "Antagonist"},
      {"measurement": "inhibition at 10 µM", "setting": "α-adrenergic1B; agonist control Phenylephrine at EC80", "result": 95, "unit": "%"},
      {"measurement": "DHE activity (screening)", "setting": "α-adrenergic2A; [5]", "result": "Antagonist"},
      {"measurement": "inhibition at 10 µM", "setting": "α-adrenergic2A; [7]", "result": 115, "unit": "%"},
      {"measurement": "DHE activity (screening)", "setting": "α-adrenergic2C; [5]", "result": "Antagonist"},
      {"measurement": "inhibition at 10 µM", "setting": "α-adrenergic2C; [7]", "result": 124, "unit": "%"},
      {"measurement": "IC50", "setting": "5-HT1B [4]", "result": 0.58, "unit": "nM"}
    ]}
  ]
}
